Converted amounts (≈) assume the structure as drawn.
Experiments:
Escherichia coli [1] = test: Antibacterial activity against Escherichia coli at 100 ug/ml by agar cup-plate method; assay type: functional; settings: read-out: IZ
Mus musculus = species: Mus musculus; test: Toxicity in Mus musculus (mouse) assessed as irritation; assay type: organism-based; settings: in vivo
Staphylococcus aureus [2] = test: Antibacterial activity against Staphylococcus aureus at 100 ug/ml by agar cup-plate method; assay type: functional; settings: read-out: IZ
Pseudomonas aeruginosa [3] = test: Antibacterial activity against Pseudomonas aeruginosa at 100 ug/ml by agar cup-plate method; assay type: functional; settings: read-out: IZ
Pseudomonas [4] = test: Antibacterial activity against […] at 100 ug/ml by agar cup-plate method; assay type: functional; settings: read-out: IZ
Staphylococcus aureus [5] = test: Antibacterial activity against Staphylococcus aureus after 24 hr by broth dilution method; assay type: functional
Pseudomonas [6] = test: Antibacterial activity against […] after 24 hr by broth dilution method; assay type: functional
Pseudomonas aeruginosa [7] = test: Antibacterial activity against Pseudomonas aeruginosa after 24 hr by broth dilution method; assay type: functional
Escherichia coli [8] = test: Antibacterial activity against Escherichia coli after 24 hr by broth dilution method; assay type: functional

Row | SMILES | zone of inhibition at 100 µg/mL (Escherichia coli [1]) | Activity (Mus musculus) | zone of inhibition at 100 µg/mL (Staphylococcus aureus [2]) | zone of inhibition at 100 µg/mL (Pseudomonas aeruginosa [3]) | zone of inhibition at 100 µg/mL (Pseudomonas [4]) | MIC (Staphylococcus aureus [5]) | MIC (Pseudomonas [6]) | MIC (Pseudomonas aeruginosa [7]) | MIC (Escherichia coli [8])
1 | Cc1c(/N=C/c2ccccc2)c(=O)n(-c2ccccc2)n1C | < 5 mm | Non-toxic | > 15 mm | < 5 mm | 10 mm |  |  |  | 
2 | Cc1c(/N=C/c2ccc(Cl)cc2)c(=O)n(-c2ccccc2)n1C | < 5 mm | Non-toxic | 10 mm | 5 mm | < 5 mm |  |  |  | 
3 | Cc1c(/N=C/c2ccc(O)cc2)c(=O)n(-c2ccccc2)n1C | 5 mm | Non-toxic | 10 mm | 5 mm | < 5 mm |  |  |  | 
4 | COc1ccc(/C=N/c2c(C)n(C)n(-c3ccccc3)c2=O)cc1 | 5 mm | Non-toxic | 5 mm | < 5 mm | 10 mm |  |  |  | 
5 | Cc1c(/N=C/c2cccc([N+](=O)[O-])c2)c(=O)n(-c2ccccc2)n1C | 5 mm | Non-toxic | 5 mm | < 5 mm | < 5 mm |  |  |  | 
6 | Cc1c(/N=C/c2ccccc2Cl)c(=O)n(-c2ccccc2)n1C | > 15 mm | Non-toxic | > 15 mm | > 15 mm | > 15 mm | 75 µg/mL (≈ 230 µM) | 100 µg/mL (≈ 307 µM) | 100 µg/mL (≈ 307 µM) | 100 µg/mL (≈ 307 µM)
7 | Cc1c(/N=C/c2ccco2)c(=O)n(-c2ccccc2)n1C | > 15 mm | Non-toxic | > 15 mm | > 15 mm | > 15 mm | 50 µg/mL (≈ 178 µM) | 75 µg/mL (≈ 267 µM) | 75 µg/mL (≈ 267 µM) | 75 µg/mL (≈ 267 µM)
8 | Cc1c(/N=C/c2ccccc2O)c(=O)n(-c2ccccc2)n1C | > 15 mm | Non-toxic | > 15 mm | 10 mm | > 15 mm | 50 µg/mL (≈ 163 µM) | 75 µg/mL (≈ 244 µM) | 100 µg/mL (≈ 325 µM) | 75 µg/mL (≈ 244 µM)
9 | Cc1c(/N=C/c2ccccc2[N+](=O)[O-])c(=O)n(-c2ccccc2)n1C | < 5 mm | Non-toxic | 10 mm | 5 mm | < 5 mm |  |  |  | 
10 | CC1(C)S[C@@H]2[C@H](NC(=O)[C@H](N)c3ccccc3)C(=O)N2[C@H]1C(=O)O [AMPICILLIN] | 10 mm | Non-toxic | > 15 mm | > 15 mm | 10 mm | 25 µg/mL (≈ 71.5 µM) | 25 µg/mL (≈ 71.5 µM) | 25 µg/mL (≈ 71.5 µM) | 25 µg/mL (≈ 71.5 µM)
11 | [H]/N=C(/N)N[C@H]1[C@H](O)[C@@H](O)[C@H](O[C@@H]2O[C@@H](C)[C@](O)(C=O)[C@H]2O[C@@H]2O[C@@H](CO)[C@H](O)[C@@H](O)[C@@H]2NC)[C@@H](N/C(N)=N\[H])[C@@H]1O [STREPTOMYCIN] | > 15 mm | Non-toxic | > 15 mm | > 15 mm | > 15 mm |  |  |  | 

Reference: ChEMBL document CHEMBL3045543, “Predictions and correlations of structure activity relationship of some aminoantipyrine derivatives on the basis of theoretical and experimental ground” (Med Chem Res, 2012)
